{"source": "patent US20060014704A1", "about": "“Compounds and their preparation for the treatment of Alzheimer's disease by inhibiting beta-amyloid peptide production” (priority 2004, published 2006)", "key": {"[1]": {"target": "T1, γ-secretase cleavage of p75 neurotrophin receptor (p75-ICD) (Homo sapiens, UniProt P49768)", "T1 construct": "Membrane fractions isolated from 293 cells overexpressing either APP (A), Notch-AE (B) or p75-AE (C); endogenous in cells; host or cells: 293 cells (membrane fractions); only the substrates APP, Notch-ΔE and p75-ΔE are overexpressed", "experiment": "Cell-free generation of p75-ICD from membrane fractions of 293 cells overexpressing p75-AE", "type": "biochemical", "method": "(§1) Membrane fractions isolated from 293 cells overexpressing either APP (A), Notch-AE (B) or p75-AE (C) and incubated in the presence of indicated compounds: Compound E (CpdE, general γ-secretase inhibitor), Rgk351, Rk1 and sulindac sulfide (SS)."}, "[2]": {"target": "γ-secretase complex (Homo sapiens, UniProt P49768)", "conditions": "partially purified γ-secretase complex; cited from earlier work"}, "[3]": {"system": "full-length APP and APP C-terminal fragments, Neuro2a-APPsw cells", "experiment": "Western blot analysis of APP processing in neuro2a cells expressing APPsw", "type": "cell-based, mouse", "source_text": "(§2) FIG. 13. depicts an analysis of APP processing after Rk1 treatment. Steady-state levels of full-length APP and APP C-terminal fragments (APP-CTFs) were examined by Western blot analysis using anti-R1 antibody. […] Correlated Aβ42 levels for each sample are shown in the bottom panel."}, "[4]": {"system": "Aβ42 production, CHO-APP/ΔE9PS1 cells", "experiment": "Secreted Aβ ELISA in CHO cells co-expressing human APP and FAD mutant PS1 (ΔE9, L286V)", "type": "cell-based, Chinese hamster", "method": "(§3) The effects of Rg5 on the Aβ42 generation were much smaller as compared to Rgk351 and Rk1.\n(§4) FIG. 10 depicts the effects of native ginsenosides on Aβ42 production. CHO cells stably transfected with human APP695 together with either wild-type (A, CHO-APP/PS1 cells) or ΔE9 FAD mutant (B, CHO-APP/ΔE9PS1 cells) forms of PS1 were used. Cells were treated with the indicated compounds (at 50 μM) for 8 hrs. Levels of secreted Aβ40 and Aβ42 in the medium were determined by ELISA and normalized to intracellular full-length APP. In CHO-APP/PS1 cells, average Aβ amounts in control samples were 320 pM for Aβ40 and 79 pM for Aβ42. The relative levels of Aβ and Aβ42 were normalized to values obtained from non-treated and vehicle-treated cells and are shown as % to control+s.d.). One of three representative experiments are shown.\n(§5) CHO-APP/PS1 (A) and CHO-APP/ΔE9PS1 (B) cells were treated with the indicated compounds at 50 μM for 8 hrs and the levels of secreted Aβ40 and Aβ42 were determined as described in FIG. 1. […] The PS1-ΔE9 FAD mutation diminished the Aβ42 response to Rk1 treatment (B)."}, "[5]": {"system": "Aβ40 and Aβ42 production, CHO-APP/PS1 cells", "experiment": "Secreted Aβ ELISA in CHO-APP/PS1 cells (wild-type PS1)", "type": "cell-based, Chinese hamster", "method": "as §3, §4, §5"}, "[6]": {"system": "full-length APP and APP C-terminal fragments, CHO-APP cells", "experiment": "Western blot analysis of APP processing in CHO-APP cells", "type": "cell-based, Chinese hamster", "conditions": "cell lysates", "source_text": "as §2"}, "[7]": {"system": "Aβ40 and Aβ42 secretion, primary embryonic cortical neurons", "experiment": "Aβ secretion in primary embryonic cortical neurons derived from Tg2576 transgenic mice", "type": "cell-based, mouse", "source_text": "Treatment of Rk1 and Rg3 decreased the level of secreted Aβ40 and Aβ42."}, "[8]": {"target": "T2, γ-secretase cleavage of Notch1 (NICD) (Homo sapiens, UniProt P49768)", "T2 construct": "Membrane fractions isolated from 293 cells overexpressing either APP (A), Notch-AE (B) or p75-AE (C); endogenous in cells; host or cells: 293 cells (membrane fractions); only the substrates APP, Notch-ΔE and p75-ΔE are overexpressed", "experiment": "Cell-free generation of NICD from membrane fractions of 293 cells overexpressing Notch-AE", "type": "biochemical", "method": "as §1"}, "[9]": {"system": "cell viability", "experiment": "Cell viability of treated cells", "type": "cell-based", "conditions": "up to 100 μM, 8 hour treatment", "method": "as §5\nTables 1-3 Structure of ginsenosides utilized in the study and their effects on Aβ42 generation. They differ at the two or three side chains attached to the common triterpene backbone known as dammarane. The common structure skeleton for each group of ginsenosides is shown in the top panel. Ginsenosides that harbor Aβ42-lowering activity are indicated in the far right column of the tables: Aβ42-lowering activity (“Yes”), no profound effects (“No”), and non-determined (“ND”). Ginsenosides that affected cell viability are indicated as “Cytotoxic.” Abbreviation for carbohydrates are as follows: Glc, D-glucopyranosyl; Ara (pyr), L-arabinopyranosyl; Ara (fur), L-arabinofuranyosyl; Rha, L-rhamnopyranosyl.\nSteaming ginseng at high temperature gave rise to additional ginsenosides with enhanced pharmacological activity, including (20S)Rg3, Rk1 and Rg5 (22-25). […] Aβ40 levels were not changed by treatment with any of the ginsenosides tested. The potency of Aβ42-lowering activity was highest with Rk1 and (20S)Rg3. […] These studies provide a structure-activity relationship between the chemical structures of ginsenosides and Aβ42-lowering activity, further providing the basis for designing additional Aβ42-lowering analogues as well as for defining a class of compounds that harbor Aβ42-lowering activity."}, "[10]": {"system": "Aβ40 and Aβ42 production, CHO cells stably transfected with human APP695", "experiment": "Secreted Aβ40/Aβ42 ELISA in CHO cells expressing human APP (CHO-APP cells)", "type": "cell-based, Chinese hamster", "design": "key to Aβ42-lowering activity: Aβ42-lowering activity (“Yes”); no profound effects (“No”); non-determined (“ND”); Ginsenosides that affected cell viability are indicated as “Cytotoxic.”", "method": "The CHO cells were treated with the indicated compounds (at 50 μg/ml) for 8 hrs. Aβ42 levels in the medium were measured by ELISA and normalized to intracellular full-length APP.\nThe potential effects of ginsenosides and their analogues in treating AD were examined. First, a number of ginsenosides were screened based on their effects on Aβ generation. The effects of various ginsenosides on Aβ (e.g., Aβ40 and Aβ42) production was initially accessed by incubating the Chinese hamster ovary (CHO) cells expressing human APP(CHO-APP cells) with each ginsenoside purified from unprocessed ginseng (known as “white ginseng”). These representative ginsenosides included Rb1, Rb2, Rc, Rd, Re, Re, Rg1 and Rg2 and differ in their side chains and sugar moieties.\nAfter 8 hours of incubation, the media were collected and the levels of secreted Aβ40 and Aβ42 were determined by ELISA."}, "[11]": {"target": "T3, γ-secretase cleavage of APP (AICD) (Homo sapiens, UniProt P49768)", "T3 construct": "Membrane fractions isolated from 293 cells overexpressing either APP (A), Notch-AE (B) or p75-AE (C); endogenous in cells; host or cells: 293 cells (membrane fractions); only the substrates APP, Notch-ΔE and p75-ΔE are overexpressed", "experiment": "Cell-free generation of AICD from membrane fractions of 293 cells overexpressing APP", "type": "biochemical", "method": "as §1"}}, "note": "Entries after “also recorded” stand apart in the source; their conditions may differ.", "data": [{"smiles": "C=C(CCC=C(C)C)[C@H]1CC[C@]2(C)[C@@H]1[C@H](O)C[C@@H]1[C@@]3(C)CC[C@H](O[C@@H]4O[C@H](CO)[C@@H](O)[C@H](O)[C@H]4O[C@@H]4O[C@H](CO)[C@@H](O)[C@H](O)[C@H]4O)C(C)(C)[C@@H]3CC[C@]12C", "note": "[Rk1]", "values": [{"measurement": "cell-free generation of p75-ICD", "setting": "[1]", "value": "does not significantly affect; also recorded: not affected"}, {"measurement": "Aβ42 production in a cell-free assay", "setting": "[2]", "value": "inhibit the Aβ42 production"}, {"measurement": "full-length APP levels", "setting": "[3]; Neuro2a-APPsw cells", "value": "did not affect"}, {"measurement": "APP C-terminal fragments, steady-state levels", "setting": "[3]; neuro2a cells expressing APPsw", "value": "increased accumulation; also recorded: up-regulated"}, {"measurement": "Aβ42-lowering response in PS1 ΔE9 FAD mutant cells compared to PS1 wild-type cells", "setting": "[4]; 50 μM, 8 hrs, FIG. 11B vs 11A", "value": "diminished"}, {"measurement": "Aβ42 levels", "setting": "[4]; CHO cells co-expressing human APP and FAD mutant presenilin 1 (delta E9, L286V), FIG. 8", "value": "reduced the Aβ42 levels"}, {"measurement": "potency of Aβ42-reducing activity (rank)", "setting": "[5]; 50 μM, 8 hrs, FIG. 11", "value": "Rk1>/=(20S)Rg3>Rg5>(20R)Rg3; also recorded: highest"}, {"measurement": "Aβ42 levels", "setting": "[5]; CHO cells co-expressing human APP and wild-type presenilin 1, FIG. 8", "value": "reduced the Aβ42 levels"}, {"measurement": "secretion of Aβ42", "setting": "[5]; heat-processing derived ginsenosides, 50 μM, 8 hrs, FIG. 11", "value": "selectively lowered the secretion of Aβ42"}, {"measurement": "APP C-terminal fragments (γ-secretase substrates), steady-state levels", "setting": "[6]", "value": "increased accumulation; also recorded: up-regulated"}, {"measurement": "full-length APP levels", "setting": "[6]", "value": "not affected; also recorded: did not affect"}, {"measurement": "level of secreted Aβ40", "setting": "[7]", "value": "decreased"}, {"measurement": "level of secreted Aβ42", "setting": "[7]", "value": "decreased"}, {"measurement": "cell-free generation of NICD", "setting": "[8]", "value": "does not significantly affect; also recorded: not affected"}, {"measurement": "cell viability", "setting": "[9]", "value": "not affected"}, {"measurement": "generation of Aβ42 (Aβ42 levels in the medium, ELISA, normalized to intracellular full-length APP)", "setting": "[10]; 50 μg/ml, 8 hrs, FIG. 4", "value": "reduce the generation of Aβ42"}, {"measurement": "Aβ42-lowering effect compared with other agents", "setting": "[10]; CHO-APP cells", "value": "most effective"}, {"measurement": "IC50", "setting": "[10]; CHO-APP cells, FIG. 12A, read-out: IC50 of Aβ42 lowering activity", "value": "~20", "unit": "µM"}, {"measurement": "preference for Aβ42 vs. Aβ40 in cell-based assay", "setting": "[10]; FIG. 6 / FIG. 12B", "value": "preferentially reduced Aβ42 (vs. Aβ40); also recorded: preferentially lowers Aβ42 (vs. Aβ40); also recorded: rather selective to Aβ42; also recorded: primarily affect Aβ42 production"}, {"measurement": "Aβ42 in the medium, dose-response", "setting": "[10]; dose-dependent, FIG. 5 / FIG. 12A", "value": "reduced Aβ42; also recorded: lower Aβ42 in a dose-dependent manner"}, {"measurement": "production of Aβ42 in cells", "setting": "[10]; general statement", "value": "lower the production of Aβ42"}, {"measurement": "concentration at which secretion of Aβ40 was affected", "setting": "[10]; only at very high concentration", "value": "~100", "unit": "µM"}, {"measurement": "Aβ40 production", "setting": "[10]; overnight treatment, FIG. 12B", "value": "slightly affected"}, {"measurement": "Aβ42 production", "setting": "[10]; overnight treatment, FIG. 12B", "value": "reduce Aβ42 production"}, {"measurement": "Aβ42-lowering activity", "setting": "[10]; summary of Tables 1-3", "value": "Yes"}, {"measurement": "cell-free generation of AICD", "setting": "[11]", "value": "does not significantly affect; also recorded: not affected"}]}]}
